{
  "source": "the Kinase Knowledgebase extract (Sharma et al. 2016)",
  "data": [
    {"target": "PIK3CD (Human) (UniProt O00329)", "sequence (O00329 whole entry, looked up)": "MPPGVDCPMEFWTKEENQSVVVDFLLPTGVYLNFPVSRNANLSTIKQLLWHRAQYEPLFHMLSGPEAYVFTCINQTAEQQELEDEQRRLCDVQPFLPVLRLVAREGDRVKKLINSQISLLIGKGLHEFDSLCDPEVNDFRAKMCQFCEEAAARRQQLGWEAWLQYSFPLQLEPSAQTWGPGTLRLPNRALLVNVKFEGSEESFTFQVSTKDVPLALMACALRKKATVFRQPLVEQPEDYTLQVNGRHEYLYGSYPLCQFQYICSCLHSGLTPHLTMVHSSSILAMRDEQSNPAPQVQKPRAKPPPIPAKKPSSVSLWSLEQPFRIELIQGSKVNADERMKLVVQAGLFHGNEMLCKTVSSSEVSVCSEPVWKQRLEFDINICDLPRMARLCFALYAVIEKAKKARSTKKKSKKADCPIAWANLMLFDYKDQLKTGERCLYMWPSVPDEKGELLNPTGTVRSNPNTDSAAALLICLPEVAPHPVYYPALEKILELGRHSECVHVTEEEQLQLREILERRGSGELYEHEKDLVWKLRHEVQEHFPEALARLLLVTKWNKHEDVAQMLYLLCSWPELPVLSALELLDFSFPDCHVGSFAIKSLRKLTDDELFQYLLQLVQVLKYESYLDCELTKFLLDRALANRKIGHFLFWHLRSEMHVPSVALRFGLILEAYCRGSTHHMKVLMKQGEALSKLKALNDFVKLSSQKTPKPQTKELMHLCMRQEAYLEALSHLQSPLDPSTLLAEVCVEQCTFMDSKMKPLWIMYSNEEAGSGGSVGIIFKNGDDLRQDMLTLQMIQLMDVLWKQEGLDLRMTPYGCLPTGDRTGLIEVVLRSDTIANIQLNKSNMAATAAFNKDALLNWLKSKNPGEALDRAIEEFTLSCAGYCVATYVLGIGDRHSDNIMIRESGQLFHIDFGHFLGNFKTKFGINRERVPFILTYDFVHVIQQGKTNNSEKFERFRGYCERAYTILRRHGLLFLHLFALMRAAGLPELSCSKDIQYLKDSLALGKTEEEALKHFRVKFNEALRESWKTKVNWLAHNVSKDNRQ", "experiment": "Enzyme Assay", "units": {"IC50": "nM"}, "values": [
      {"smiles": "CCn1c(-c2cnc(C)nc2)nc2c(O[C@H]3CCN(c4cc(C)ccn4)C3)ncnc21", "IC50": 4.1},
      {"smiles": "CCn1ncc(-c2nc3c(O[C@H]4CCN(c5nncc6ccccc56)C4)ncnc3n2C)c1C", "IC50": 17},
      {"smiles": "CCn1ncc(-c2nc3c(S[C@H]4CCN(c5ccncn5)C4)ncnc3n2C)c1C", "IC50": 6},
      {"smiles": "CCn1ncc(-c2nc3c(O[C@H]4CCN(C(=O)c5cn6cccnc6n5)C4)ncnc3n2C)c1C", "IC50": 100},
      {"smiles": "CCn1ncc(-c2nc3c(O[C@@H]4CCCN(C(=O)OC(C)(C)C)C4)ncnc3n2C)c1C", "IC50": 4600},
      {"smiles": "CCC(=O)N1CCC(Cc2ncnc3c2nc(-c2cnn(CC)c2C)n3C)C1", "note": "(stereo unspecified)", "IC50": 250},
      {"smiles": "Cc1n[nH]cc1-c1nc2c(O[C@H]3CCN(C(=O)OC(C)(C)C)C3)ncnc2n1C", "IC50": 13},
      {"smiles": "CCC(=O)N1CC[C@H](Oc2ncnc3c2nc(-c2cnc(OC)c(F)c2)n3C)C1", "IC50": 9.3},
      {"smiles": "CCn1ncc(-c2nc3c(OC4CCN(C(=O)c5ccc6ccccc6c5)C4)ncnc3n2C)c1C", "note": "(stereo unspecified)", "IC50": 28},
      {"smiles": "CCCn1c(-c2cnc(C)nc2)nc2c(O[C@H]3CCN(C(=O)CC)C3)ncnc21", "IC50": 130},
      {"smiles": "CCn1c(-c2ccc(OC(F)F)nc2)nc2c(O[C@@H]3CCN(C(=O)C4CC4)C3)ncnc21", "IC50": 14},
      {"smiles": "CCn1c(-c2cnc(C)nc2)nc2c(O[C@H]3CCN(C(=O)N4CC(OC)C4)C3)ncnc21", "IC50": 1.8},
      {"smiles": "CCn1ncc(-c2nc3c(O[C@H]4CCN(C(=O)c5ccc(C)nc5)C4)ncnc3n2C)c1C", "IC50": 70},
      {"smiles": "CCn1ncc(-c2nc3c(OC4CCN(C(=O)c5ccccc5)CC4)ncnc3n2C)c1C", "IC50": 960},
      {"smiles": "CCn1ncc(-c2nc3c(O[C@H]4CCN(C(=O)C5CCC5)C4)ncnc3n2C)c1C", "IC50": 7},
      {"smiles": "CCC(=O)N1CC[C@H](Oc2ncnc3c2nc(C(F)F)n3CC)C1", "IC50": 100},
      {"smiles": "CCOC(=O)C(C)NC(=O)N1CC[C@H](Oc2ncnc3c2nc(-c2cnn(CC)c2C)n3C)C1", "note": "(stereo partly specified)", "IC50": 110},
      {"smiles": "CCn1ncc(-c2nc3c(O[C@H]4CCN(C(=O)OC(C)C)C4)ncnc3n2C)c1C", "IC50": 8.1},
      {"smiles": "CCn1ncc(-c2nc3c(O[C@H]4CCN(C(=O)C5CC5)C4)ncnc3n2C)c1C", "IC50": 6.3},
      {"smiles": "CCn1ncc(-c2nc3c(O[C@@H]4CCN(C(=O)C5CCOCC5)C4)ncnc3n2C)c1C", "IC50": 1600},
      {"smiles": "CCn1ncc(-c2nc3c(CC4CCN(C(=O)C5CCOCC5)C4)ncnc3n2C)c1C", "note": "(stereo unspecified)", "IC50": 290},
      {"smiles": "CCn1ncc(-c2nc3c(O[C@H]4CCN(C(=O)C5CCOCC5)C4)ncnc3n2CC)c1C", "IC50": "< 1"},
      {"smiles": "CCn1c(-c2ccc(OC)nc2)nc2c(O[C@H]3CCN(C(=O)C(C)C)C3)ncnc21", "IC50": 2.1},
      {"smiles": "CCn1ncc(-c2nc3c(O[C@H]4CCCN(C(=O)OC(C)(C)C)C4)ncnc3n2C)c1C", "IC50": 94},
      {"smiles": "CCn1ncc(-c2nc3c(O[C@H]4CCN(C(=O)Oc5ccc(OC)cc5)C4)ncnc3n2C)c1C", "IC50": 65},
      {"smiles": "CCn1c(-c2cnn(-c3ccccc3)c2C)nc2c(O[C@H]3CCN(C(=O)C4CC4)C3)ncnc21", "IC50": "< 1"},
      {"smiles": "CCC(=O)N1CC[C@H](Oc2ncnc3c2nc(-c2ccc(OC)c(C(F)(F)F)c2)n3C)C1", "IC50": 2.5},
      {"smiles": "CCn1c(-c2cnc(C)nc2)nc2c(O[C@H]3CCN(C(=O)N(C)C4CC4)C3)ncnc21", "IC50": 28},
      {"smiles": "CCn1c(N(C)CCOC)nc2c(O[C@H]3CCN(C(=O)OC(C)(C)C)C3)ncnc21", "IC50": 920},
      {"smiles": "CCn1c(-c2cnc(C)nc2)nc2c(O[C@H]3CCN(C(=O)N4CC(C)(OC)C4)C3)ncnc21", "IC50": 34},
      {"smiles": "CCn1c(-c2ccc(C(F)(F)F)nc2)nc2c(O[C@H]3CCN(C(=O)C4CC4)C3)ncnc21", "IC50": 3},
      {"smiles": "CCC(=O)N1CC[C@H](Oc2ncnc3c2nc(CC(C)C)n3CC)C1", "IC50": 240},
      {"smiles": "CCn1ncc(-c2nc3c(O[C@H]4CCN(c5ncnc6c5cnn6C)C4)ncnc3n2C)c1C", "IC50": 120},
      {"smiles": "CCn1c(N(C)C(C)C)nc2c(O[C@H]3CCN(C(=O)OC(C)(C)C)C3)ncnc21", "IC50": 580},
      {"smiles": "CCn1ncc(-c2nc3c(O[C@H]4CCN(C(=O)C5CCOC(C)(C)C5)C4)ncnc3n2C)c1C", "note": "(stereo partly specified)", "IC50": 1.2},
      {"smiles": "CCn1c(-c2cnc(C)nc2)nc2c(O[C@H]3CCN(C(=O)C4CCOC4)C3)ncnc21", "note": "(stereo partly specified)", "IC50": 5.8},
      {"smiles": "Cn1c(-c2cncc3ccccc23)nc2c(O[C@H]3CCN(C(=O)OC(C)(C)C)C3)ncnc21", "IC50": 320},
      {"smiles": "CCn1c(-c2ccc(C(F)(F)F)nc2)nc2c(O[C@H]3CCN(C(=O)N4CC(OC)C4)C3)ncnc21", "IC50": "< 1"},
      {"smiles": "CCC(=O)N1CC[C@H](Oc2ncnc3c2nc(-c2cnc(OC)c(C)c2)n3C)C1", "IC50": 2.1},
      {"smiles": "CCn1ncc(-c2nc3c(O[C@H]4CCN(C(=O)c5cc6occc6[nH]5)C4)ncnc3n2C)c1C", "IC50": 210},
      {"smiles": "CCC(=O)N1CC[C@H](Oc2ncnc3c2nc(-c2cnn(C(C)(C)C)c2)n3C)C1", "IC50": 4.7},
      {"smiles": "CCn1c(-c2cnc(C)nc2)nc2c(O[C@H]3CC[C@@H](NC(=O)C4CC4)CC3)ncnc21", "IC50": 120},
      {"smiles": "CCn1ncc(-c2nc3c(S[C@H]4CCN(C(=O)C5CCOCC5)C4)ncnc3n2C)c1C", "IC50": 18},
      {"smiles": "CCn1ncc(-c2nc3c(O[C@H]4CCN(C(=O)c5cc(C)[nH]n5)C4)ncnc3n2C)c1C", "IC50": 28},
      {"smiles": "CCn1ncc(-c2nc3c(O[C@H]4CCN(c5ncnc6sccc56)C4)ncnc3n2C)c1C", "IC50": 5.7},
      {"smiles": "CCC(=O)N1CC[C@H](Oc2ncnc3c2nc(CC(C)C)n3C)C1", "IC50": 890},
      {"smiles": "CCC(=O)N1CC[C@H](Oc2ncnc3c2nc(-c2ccc4[nH]ncc4c2)n3C)C1", "IC50": 44},
      {"smiles": "CCn1ncc(-c2nc3c(O[C@H]4CCN(c5cc(-n6cccn6)ncn5)C4)ncnc3n2C)c1C", "IC50": 216},
      {"smiles": "CCn1c(-c2ccc(OC)nc2)nc2c(O[C@H]3CCN(C(=O)C4CCOCC4)C3)ncnc21", "IC50": 1.6},
      {"smiles": "CCn1ncc(-c2nc3c(S[C@H]4CCN(C(=O)OCC(C)C)C4)ncnc3n2C)c1C", "IC50": 30},
      {"smiles": "CCn1ncc(-c2nc3c(S(=O)(=O)[C@H]4CCN(C(=O)OC(C)(C)C)C4)ncnc3n2C)c1C", "IC50": 160},
      {"smiles": "CCn1c(-c2cnn3c2CCCC3)nc2c(O[C@H]3CCN(C(=O)C(C)C)C3)ncnc21", "IC50": "< 1"},
      {"smiles": "CCn1ncc(-c2nc3c(O[C@H]4CCN(C(=O)c5nc6cc(Cl)ccn6n5)C4)ncnc3n2C)c1C", "IC50": 860},
      {"smiles": "CCn1c(-c2ccc(OC)c(F)c2)nc2c(O[C@H]3CCN(C(=O)C4CC4)C3)ncnc21", "IC50": 2.2},
      {"smiles": "CCn1c(-c2cnn3c2CCCC3)nc2c(O[C@H]3CCN(C(=O)C4CC4)C3)ncnc21", "IC50": "< 1"},
      {"smiles": "CCn1ncc(-c2nc3c(O[C@H]4CCN(C(=O)c5cn(C)nc5C(F)(F)F)C4)ncnc3n2C)c1C", "IC50": 68},
      {"smiles": "CCn1ncc(-c2nc3c(O[C@H]4CCN(C(=O)c5nnc6n5CCCC6)C4)ncnc3n2C)c1C", "IC50": 240},
      {"smiles": "CCn1c(-c2cnc(OC)c(F)c2)nc2c(O[C@H]3CCN(C(=O)C4CC(F)(F)C4)C3)ncnc21", "IC50": "< 1"},
      {"smiles": "CCn1c(-c2cnc(C)nc2)nc2c(O[C@H]3CCN(c4ccccc4)C3)ncnc21", "IC50": 9.1},
      {"smiles": "CCn1c(-c2cnc3[nH]ccc3c2)nc2c(O[C@H]3CCN(C(=O)C4CC4)C3)ncnc21", "IC50": "< 1"},
      {"smiles": "CCn1ncc(-c2nc3c(OC4CCN(C(=O)C5CCOCC5)CC4)ncnc3n2C)c1C", "IC50": 1100},
      {"smiles": "CCn1ncc(-c2nc3c(O[C@H]4CCN(S(=O)(=O)C(F)(F)F)C4)ncnc3n2C)c1C", "IC50": 1000},
      {"smiles": "CCn1ncc(-c2nc3c(O[C@H]4CCN(C(=O)c5cn[nH]c5)C4)ncnc3n2C)c1C", "IC50": 16},
      {"smiles": "CCn1ncc(-c2nc3c(O[C@H]4CCN(C(=O)C5CC(F)(F)C5)C4)ncnc3n2C)c1C", "IC50": 13},
      {"smiles": "CCn1ncc(-c2nc3c(O[C@H]4CCN(C(=O)c5noc(C(C)(C)O)n5)C4)ncnc3n2C)c1C", "IC50": 120},
      {"smiles": "CCn1ncc(-c2nc3c(O[C@H]4CCN(C(=O)c5nnc(N(C)C)o5)C4)ncnc3n2C)c1C", "IC50": 68}
    ]}
  ]
}
